Assay results taken from US20110224221A1, “HEMATOPOIETIC PROTECTION AGAINST IONIZING RADIATION USING SELECTIVE CYCLIN-DEPENDENT KINASE 4/6 INHIBITORS” (priority 2008, published 2011).
Entries after “also recorded” stand apart in the source; their conditions may differ.

Tests used:
tHDF cells = test: γH2AX after IR; type: cell-based, human; conditions: 24 hours prior to IR; PD0332991 100 nM (6 Gy), 2BrIC 2 μM (0-8 Gy)
Description: FIG. 5A is a set of grayscale 40× images of phospho-γH2AX foci (nuclear) and phalloidin staining (cytoplasmic) of telomerized human diploid fibroblasts (tHDF) with (bottom row) and without (top row) 6 Gy ionizing radiation (IR). […] Scale bar=50 μm.
N=139 or greater for each condition; box=middle 50%, whiskers=0-25% and 75-100%. Significance determined by Kruskal-Wallis with Dunn post-hoc test for pairwise comparisons (*** p<0.0001).
FIG. 5F is a set of representative phospho-γH2AX (x-axis) dot plots after 0, 2, 4, 6, or 8 gray (Gy) of ionizing radiation with (right-hand column) or without (left-hand column) treatment with the selective cyclin-dependent kinase 4/6 (CDK4/6) inhibitor 2-bromo-12,13-dihydro-5H-indolo[2,3-a]pyrrolo[3,4]carbazole-5,6-dione (2BrIC) at 2 μM for 24 hours prior to exposure to ionizing radiation (IR). Cells that were not treated with 2BrIC were instead treated with vehicle (dimethyl sulfoxide (DMSO)) only. An increased fraction of phospho-γH2AX (x-axis) expressing cells is noted with increased doses of IR in DMSO treated cells.
γH2AX after IR: For γH2AX images, tHDF received 6 Gy IR with or without 24 hours of prior exposure to a CDK inhibitor. […] Images were analyzed for mean nuclear intensities were computed in ImageJ software (developed by the National Institutes of Health, Bethesda, Md., United States of America). […]

[1] = tested on: peripheral blood lineages; test: Peripheral blood counts after TBI; type: in vivo, mice; conditions: for bone marrow protection: after IR; for protection/recovery of peripheral blood lineages: platelets, erythrocytes, myeloid cells, lymphocytes after IR
Procedure: For comparison, data from mice that had not been exposed to IR is also shown (lightly shaded bars). […] Error bars show standard error of the mean.
Data was prepared from weekly complete blood counts on tail vein bleeds. Asterisk(s) indicate statistical significance determined by a 2-sided t-test. Error bars are +/− the standard error of the mean.
(§1) For TBI experiments, mice were irradiated using a ^137Cs source (AECL Gammacell 40 Irradiator, Atomic Energy of Canada Ltd, Mississauga, Ontario, Canada). Delivered doses were at or near the empirically determined LD90 of 7.5 Gy, consistent with prior studies. See Na Nakorn et al., J. Clin. Invest., 109, 1579-1585 (2002); Herodin et al., Blood, 101, 2609-2616 (2003); Uckun et al., Blood, 75, 638-645 (1990); and Wang et al., Proc. Natl. Acad. Sci., USA, 94, 14590-14595 (1997). Peripheral blood was collected using a tail vein nick for complete blood cells (CBCs) and analyzed with a HemaTrue analyzer (Heska Co., Loveland, Colo., United States of America).
The peripheral blood of animals after IR exposure was studied to confirm that the improved survival was due to protection of hematopoietic lineages.

[2] = tested on: mice exposed to total body irradiation; test: Survival after total body irradiation (TBI); type: in vivo
Description: as §1
Adult female C57Bl/6 mice were exposed to 6.5, 7.5, or 8.5 Gy with or without PD0332991 treatment and followed for 40 days post-TBI. The LD90 for IR was determined to be about 7.5 Gy. […] See FIGS. 14A for C3H and FIG. 2E for FVB/n. […] It appears that PQ resulting from transient CDK4/6 inhibition around the time of TBI enhances radioresistance in vivo.
More particularly, animals were given a CDK4/6 inhibitor at different times relative to TBI at the LD90. As radioprotection was observed when animals were treated with two doses pre- and one dose post-TBI (see FIGS. 13A-13B), further studies were undertaken to determine which of these doses was most important for radioprotection. Without being bound to any one theory, it appeared that most of the benefit of the treatment schedule was associated PD 0332991 treatment immediately prior to or contemporaneous with TBI. […] Although there are a few known compounds that protect from radiotoxicity when administered prior to IR (i.e. “radioprotectants”) (see Burdelya et al., Science, 320, 226-230 (2008); and Weiss and Landauer, Int J. Radiat. Biol., 85, 539-573 (2009)), previous to the presently disclosed subject matter, no known hematologic “radiomitigants” (i.e., compounds that reduce hematotoxicity when administered many hours after an exposure to TBI) are believed to have been reported.

[3] = 8.5 Gy TBI, single dose four hours prior to IR

Structure (SMILES) | γH2AX formation after IR (tHDF cells) | bone marrow protection [1] | survival ([2]; 6.5 Gy) | survival ([2]; 7.5 Gy, C57Bl/6, followed 40 days post-TBI) | survival ([2]; 7.5 Gy, multiple doses around IR, within 40 days) [%] | survival ([2]; 7.5 Gy, single dose 4 hours prior to IR) | survival ([2]; 7.5 Gy, single dose 20 hours after TBI) | survival ([2]; 7.5 Gy, single time 0 dose) | median survival [2, 3] [days] | term survival [2, 3] [%] | term survival ([2]; 8.5 Gy TBI, single dose four hours prior to IR, listed as PD 0332991) | anemia and thrombocytopenia ([1]; lethally irradiated mice (7.5 Gy)) | protection/recovery of peripheral blood lineages [1] | protection/recovery of peripheral blood lineages ([1]; listed as PD 0332991) | blood count nadirs and recovery ([1]; sub-lethal dose of TBI (6.5 Gy))
O=C1NC(=O)c2c1c1c3ccccc3[nH]c1c1[nH]c3cc(Br)ccc3c21 [Compound 2BrIC, 2-bromo-12,13-dihydro-5H-indolo[2,3-a]pyrrolo[3,4]-carbazole-5,6-dione] | attenuated; also recorded: potently decreases IR-induced DNA damage; also recorded: decreases the induction of phospho-γH2AX expression | marked bone marrow protection | – | – | – | – | – | – | – | – | – | – | – | – | –
CC(=O)c1c(C)c2cnc(Nc3ccc(N4CCNCC4)cn3)nc2n(C2CCCC2)c1=O [PD0332991, 6-acetyl-8-cyclopentyl-5-methyl-2-(5-piperazin-1-yl-pyridin-2-ylamino)-8H-pyrido-[2,3-d]-pyrimidin-7-one] | attenuated | marked bone marrow protection | All mice survived | all treated mice survived | ~100 | Enhanced survival; also recorded: survival similar to animals treated on the multi-dose | significantly enhanced | survival similar to animals treated on the multi-dose | 19 | 13 | about 30% | significantly ameliorated | beneficial effect on the recovery of all peripheral blood lineages | protects all lineages of blood cells | diminished count nadirs and caused more rapid count recovery
